Legend:
[1] = system: rosacea; assay: Topical treatment of patients with rosacea; type: in vivo, human; conditions: two patients, lotion form, 28 days; not in the untreated areas
Procedure: Rosacea: Two patients with rosacea were treated with Compound 25 for 28 days in a lotion form.

[2] = system: hand and facial eczema; assay: Topical treatment of patients with hand and facial eczema; type: in vivo, human; conditions: four patients, topically applied in cream base over 14 days
Procedure: To test the effect of the compounds on treatment of human dermatologic disorders associated with increased CCL5 production by keratinocytes, Compound 11 and Compound 21 were formulated into a topically applied cream at a concentration of 7%. The compounds in the cream base were applied topically to human subjects suffering from dermatitis in an area of the skin with active skin lesions. The control was the topical cream base composition without the active compounds. Outcome was measured by reduction or disappearance to the lesion in the treated area vs the control area.
Eczema: Four patients with hand and facial eczema were treated with Compound 97 topically applied in a cream base over a period of 14 days. By day 7 the eczema had resolved in the area treated in three of the patients and by day 12 in the fourth patient. The eczema persisted in the areas not so treated.

| SMILES | rosacea in treated area at end of course of therapy [1] | eczema resolved in treated area by day (fourth patient) ([2]; the fourth patient) [days] | eczema resolved in treated area by day (three of the patients) ([2]; three of the patients, eczema persisted in untreated areas) [days] |
| --- | --- | --- | --- |
| CC(C)OC(=O)C(C)(C)Oc1ccc(C(F)(F)F)cc1 [Compound 25] | nearly disappeared |  |  |
| CC(C)OC(=O)C(C)(C)Oc1ccc(C(=O)c2ccc(Cl)cc2)cc1 [Compound 97] |  | ≤ 12 | ≤ 7 |
